# Reference: paper PMC3236397 (Frontiers in Pharmacology, 2011)
# What was measured:
# NMU1 = NMU1 (Homo sapiens, UniProt Q9HB89); test: GPCR cell-based functional assay, Safety and Liability Panel; conditions: read-out: Percentage inhibition
# OPRM1 = OPRM1 (Homo sapiens, UniProt P35372); test: as above; conditions: OPRM1, read-out: Percentage inhibition
# A1 = A1 (Homo sapiens, UniProt P30542); test: as above; conditions: read-out: Percentage inhibition
# UT/GPR14 = UT/GPR14 (Homo sapiens, UniProt Q9UKP6); test: as above; conditions: read-out: Percentage inhibition
# OPRK1 = OPRK1 (Homo sapiens, UniProt P41145); test: as above; conditions: read-out: Percentage inhibition
# M3 = M3 (Homo sapiens, UniProt P20309); test: as above; conditions: read-out: Percentage inhibition
# Y2 = Y2 (Homo sapiens, UniProt P49146); test: as above; conditions: read-out: Percentage inhibition
# S1P3 = S1P3 (Homo sapiens, UniProt Q99500); test: as above; conditions: read-out: Percentage inhibition
# PAC1 long isoform = test: as above; set-up: species or system human; conditions: 10 μM BIRB0796
# OX1 = OX1 (Homo sapiens, UniProt O43613); test: as above; conditions: read-out: Percentage inhibition
# BB2 = BB2 (Homo sapiens, UniProt P30550); test: as above; conditions: read-out: Percentage inhibition
# Chain of BB2 (P30550 whole entry): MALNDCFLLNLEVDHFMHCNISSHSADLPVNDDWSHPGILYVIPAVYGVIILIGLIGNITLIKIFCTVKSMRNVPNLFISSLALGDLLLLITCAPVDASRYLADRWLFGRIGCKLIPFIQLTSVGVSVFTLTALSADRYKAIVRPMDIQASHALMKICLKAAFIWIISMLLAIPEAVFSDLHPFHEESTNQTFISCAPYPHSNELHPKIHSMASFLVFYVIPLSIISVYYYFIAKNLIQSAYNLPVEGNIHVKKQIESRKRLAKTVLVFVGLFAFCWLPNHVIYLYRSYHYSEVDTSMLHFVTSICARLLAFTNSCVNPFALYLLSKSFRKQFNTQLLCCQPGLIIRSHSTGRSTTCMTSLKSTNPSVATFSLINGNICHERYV
# VPAC1 = VPAC1 (Homo sapiens, UniProt P32241); test: as above; conditions: read-out: Percentage inhibition
# Beta 2 = Beta 2 (Homo sapiens, UniProt P07550); test: as above; conditions: read-out: Percentage inhibition
# Alpha1A = Alpha1A (Homo sapiens, UniProt P35348); test: as above; conditions: read-out: Percentage inhibition
# CRF1 = CRF1 (Homo sapiens, UniProt P34998); test: as above; conditions: read-out: Percentage inhibition
# SST4 = SST4 (Homo sapiens, UniProt P31391); test: as above; conditions: read-out: Percentage inhibition
# Chain of SST4 (P31391 whole entry): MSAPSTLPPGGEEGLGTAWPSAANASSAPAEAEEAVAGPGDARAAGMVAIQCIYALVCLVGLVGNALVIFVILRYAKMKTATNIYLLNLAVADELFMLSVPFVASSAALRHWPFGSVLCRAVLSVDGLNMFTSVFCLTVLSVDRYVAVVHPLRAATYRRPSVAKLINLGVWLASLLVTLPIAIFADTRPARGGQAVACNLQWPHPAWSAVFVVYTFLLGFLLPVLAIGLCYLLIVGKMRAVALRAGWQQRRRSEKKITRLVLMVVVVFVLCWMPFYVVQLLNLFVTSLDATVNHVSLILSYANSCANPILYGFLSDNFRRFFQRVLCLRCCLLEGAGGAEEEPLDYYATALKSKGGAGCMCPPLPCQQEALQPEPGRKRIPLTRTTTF
# CysLT1 = CysLT1 (Homo sapiens, UniProt Q9Y271); test: as above; conditions: read-out: Percentage inhibition
# V2 = V2 (Homo sapiens, UniProt P30518); test: as above; conditions: read-out: Percentage inhibition
# H3 = H3 (Homo sapiens, UniProt Q9Y5N1); test: as above; conditions: read-out: Percentage inhibition
# H1 = H1 (Homo sapiens, UniProt P35367); test: as above; conditions: read-out: Percentage inhibition
# NK1 = NK1 (Homo sapiens, UniProt P25103); test: as above; conditions: read-out: Percentage inhibition
# Motilin receptor = Motilin receptor (Homo sapiens, UniProt O43193); test: as above; conditions: read-out: Percentage inhibition
# CB1 = CB1 (Homo sapiens, UniProt P21554); test: as above; conditions: read-out: Percentage inhibition
# VPAC2 = VPAC2 (Homo sapiens, UniProt P41587); test: as above; conditions: read-out: Percentage inhibition
# CXCR1 = CXCR1 (Homo sapiens, UniProt P25024); test: as above; conditions: read-out: Percentage inhibition
# Chain of CXCR1 (P25024 whole entry): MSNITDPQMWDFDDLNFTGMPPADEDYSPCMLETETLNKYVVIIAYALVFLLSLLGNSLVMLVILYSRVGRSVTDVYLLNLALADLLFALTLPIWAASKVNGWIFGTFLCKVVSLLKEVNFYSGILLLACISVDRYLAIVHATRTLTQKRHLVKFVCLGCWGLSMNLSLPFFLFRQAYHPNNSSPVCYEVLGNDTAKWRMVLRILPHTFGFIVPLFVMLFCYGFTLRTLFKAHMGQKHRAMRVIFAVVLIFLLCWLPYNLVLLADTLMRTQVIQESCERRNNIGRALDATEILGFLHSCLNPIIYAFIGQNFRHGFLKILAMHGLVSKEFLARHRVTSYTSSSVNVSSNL
# D5 = D5 (Homo sapiens, UniProt P21918); test: as above; conditions: read-out: Percentage inhibition
# CGRP1 = CGRP1 (Homo sapiens, UniProt O60894+Q16602); test: as above; conditions: read-out: Percentage inhibition
# IP1 = IP1 (Homo sapiens, UniProt P43119); test: as above; conditions: read-out: Percentage inhibition
# Alpha1D = Alpha1D (Homo sapiens, UniProt P25100); test: as above; conditions: read-out: Percentage inhibition
# EP3 = EP3 (Homo sapiens, UniProt P43115); test: as above; conditions: read-out: Percentage inhibition
# CCR2B = CCR2B (Homo sapiens, UniProt P41597); test: as above; conditions: read-out: Percentage inhibition
# TSH = TSH (Homo sapiens, UniProt P16473); test: as above; conditions: read-out: Percentage inhibition
# Chain of TSH (P16473 21-764): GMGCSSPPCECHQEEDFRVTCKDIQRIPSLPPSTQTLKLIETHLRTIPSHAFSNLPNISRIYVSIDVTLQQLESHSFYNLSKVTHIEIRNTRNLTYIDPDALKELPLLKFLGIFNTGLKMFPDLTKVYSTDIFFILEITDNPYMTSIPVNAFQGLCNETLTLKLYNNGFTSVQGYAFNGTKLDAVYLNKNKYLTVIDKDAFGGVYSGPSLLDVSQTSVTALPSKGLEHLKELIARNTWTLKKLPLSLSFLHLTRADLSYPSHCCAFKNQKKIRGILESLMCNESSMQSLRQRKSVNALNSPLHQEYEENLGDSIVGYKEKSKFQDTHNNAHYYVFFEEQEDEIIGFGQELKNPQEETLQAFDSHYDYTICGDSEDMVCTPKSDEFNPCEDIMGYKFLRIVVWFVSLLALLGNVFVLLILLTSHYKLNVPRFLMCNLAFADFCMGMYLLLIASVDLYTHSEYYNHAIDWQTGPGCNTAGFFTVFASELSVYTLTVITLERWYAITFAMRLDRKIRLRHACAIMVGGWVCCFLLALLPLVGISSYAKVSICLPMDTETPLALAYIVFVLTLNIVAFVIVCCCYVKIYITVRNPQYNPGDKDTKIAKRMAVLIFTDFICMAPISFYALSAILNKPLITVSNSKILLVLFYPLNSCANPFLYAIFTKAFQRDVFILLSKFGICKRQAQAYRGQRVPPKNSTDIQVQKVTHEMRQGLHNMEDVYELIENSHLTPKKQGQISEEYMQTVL
# NK3 = NK3 (Homo sapiens, UniProt P29371); test: as above; conditions: read-out: Percentage inhibition
# Chain of NK3 (P29371 whole entry): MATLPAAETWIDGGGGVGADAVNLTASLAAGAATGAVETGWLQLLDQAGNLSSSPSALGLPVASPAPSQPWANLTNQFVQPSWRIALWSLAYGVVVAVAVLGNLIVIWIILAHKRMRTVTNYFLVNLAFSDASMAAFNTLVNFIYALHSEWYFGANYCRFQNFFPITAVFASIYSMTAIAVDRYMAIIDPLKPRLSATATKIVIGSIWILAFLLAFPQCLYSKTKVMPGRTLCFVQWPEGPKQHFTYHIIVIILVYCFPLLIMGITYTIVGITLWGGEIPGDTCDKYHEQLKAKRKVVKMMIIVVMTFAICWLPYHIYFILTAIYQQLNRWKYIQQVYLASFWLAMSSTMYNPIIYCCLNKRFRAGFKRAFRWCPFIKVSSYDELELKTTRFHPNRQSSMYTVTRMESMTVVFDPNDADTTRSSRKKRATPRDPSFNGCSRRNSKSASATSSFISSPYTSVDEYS
# CB2 = CB2 (Homo sapiens, UniProt P34972); test: as above; conditions: read-out: Percentage inhibition
# PRP = PRP (Homo sapiens, UniProt P49683); test: as above; conditions: read-out: Percentage inhibition
# PAF = PAF (Homo sapiens, UniProt P25105); test: as above; conditions: read-out: Percentage inhibition
# P2Y1 = P2Y1 (Homo sapiens, UniProt P47900); test: as above; conditions: read-out: Percentage inhibition
# GnRH/LHRH = GnRH/LHRH (Homo sapiens, UniProt P30968); test: as above; conditions: read-out: Percentage inhibition
# Chain of GnRH/LHRH (P30968 whole entry): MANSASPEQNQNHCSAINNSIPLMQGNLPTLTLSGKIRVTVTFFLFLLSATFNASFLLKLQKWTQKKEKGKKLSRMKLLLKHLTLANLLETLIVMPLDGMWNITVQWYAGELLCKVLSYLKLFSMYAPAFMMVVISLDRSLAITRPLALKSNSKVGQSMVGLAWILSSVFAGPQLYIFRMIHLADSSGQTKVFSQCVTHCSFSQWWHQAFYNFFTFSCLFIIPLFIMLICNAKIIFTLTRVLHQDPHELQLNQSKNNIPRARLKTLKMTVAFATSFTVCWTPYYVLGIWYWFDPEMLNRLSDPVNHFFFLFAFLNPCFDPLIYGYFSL
# C5aR = C5aR (Homo sapiens, UniProt P21730); test: as above; conditions: read-out: Percentage inhibition
# D1 = D1 (Homo sapiens, UniProt P21728); test: as above; conditions: read-out: Percentage inhibition
# NTR1 = NTR1 (Homo sapiens, UniProt P30989); test: as above; conditions: read-out: Percentage inhibition
# Chain of NTR1 (P30989 whole entry): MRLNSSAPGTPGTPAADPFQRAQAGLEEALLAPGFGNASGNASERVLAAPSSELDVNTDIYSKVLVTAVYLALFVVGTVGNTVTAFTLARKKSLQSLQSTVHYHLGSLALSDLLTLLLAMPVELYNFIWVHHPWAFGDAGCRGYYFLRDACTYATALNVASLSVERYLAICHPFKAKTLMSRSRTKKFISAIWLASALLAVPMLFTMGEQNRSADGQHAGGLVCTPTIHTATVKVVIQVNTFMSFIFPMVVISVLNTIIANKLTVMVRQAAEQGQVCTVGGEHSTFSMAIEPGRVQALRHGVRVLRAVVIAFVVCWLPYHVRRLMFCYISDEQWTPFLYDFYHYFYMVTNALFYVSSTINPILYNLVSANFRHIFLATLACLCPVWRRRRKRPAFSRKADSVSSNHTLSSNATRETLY
# V1A = V1A (Homo sapiens, UniProt P37288); test: as above; conditions: read-out: Percentage inhibition
# hERG = hERG (Homo sapiens, UniProt Q12809); test: in vitro
# GPR109A = GPR109A (Homo sapiens, UniProt Q8TDS4); test: GPCR cell-based functional assay, Safety and Liability Panel; conditions: read-out: Percentage inhibition
# BLT1 = BLT1 (Homo sapiens, UniProt Q15722); test: as above; conditions: read-out: Percentage inhibition
# Chain of BLT1 (Q15722 whole entry): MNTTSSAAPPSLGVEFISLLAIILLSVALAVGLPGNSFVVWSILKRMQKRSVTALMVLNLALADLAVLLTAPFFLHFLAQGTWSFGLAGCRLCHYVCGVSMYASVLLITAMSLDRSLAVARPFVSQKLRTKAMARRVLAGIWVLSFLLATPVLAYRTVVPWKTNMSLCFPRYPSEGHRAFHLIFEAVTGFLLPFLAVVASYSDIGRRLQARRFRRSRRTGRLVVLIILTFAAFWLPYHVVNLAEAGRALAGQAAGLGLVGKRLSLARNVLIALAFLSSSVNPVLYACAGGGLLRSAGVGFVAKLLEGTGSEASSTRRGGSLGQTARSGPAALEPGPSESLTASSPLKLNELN
# CCR1 = CCR1 (Homo sapiens, UniProt P32246); test: as above; conditions: read-out: Percentage inhibition
# 5-HT2B = 5-HT2B (Homo sapiens, UniProt P41595); test: as above; conditions: read-out: Percentage inhibition
# CCK2 = CCK2 (Homo sapiens, UniProt P32239); test: as above; conditions: read-out: Percentage inhibition
# H2 = H2 (Homo sapiens, UniProt P25021); test: as above; conditions: read-out: Percentage inhibition
# D2L = D2L (Homo sapiens, UniProt P14416); test: as above; conditions: read-out: Percentage inhibition
# ETB = ETB (Homo sapiens, UniProt P24530); test: as above; conditions: read-out: Percentage inhibition
# MC5 = MC5 (Homo sapiens, UniProt P33032); test: as above; conditions: read-out: Percentage inhibition
# ETA = ETA (Homo sapiens, UniProt P25101); test: as above; conditions: read-out: Percentage inhibition
# GAL1 = GAL1 (Homo sapiens, UniProt P47211); test: as above; conditions: read-out: Percentage inhibition
# Chain of GAL1 (P47211 whole entry): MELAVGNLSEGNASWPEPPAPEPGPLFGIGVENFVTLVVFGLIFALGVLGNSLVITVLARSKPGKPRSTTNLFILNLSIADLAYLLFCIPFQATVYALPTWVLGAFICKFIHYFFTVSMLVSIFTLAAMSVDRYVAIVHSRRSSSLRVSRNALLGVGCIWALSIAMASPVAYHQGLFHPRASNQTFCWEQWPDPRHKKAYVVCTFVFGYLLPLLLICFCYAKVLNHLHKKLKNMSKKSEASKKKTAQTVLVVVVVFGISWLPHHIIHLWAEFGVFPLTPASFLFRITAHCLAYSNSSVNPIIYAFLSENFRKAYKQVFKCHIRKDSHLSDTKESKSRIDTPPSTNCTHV
# Alpha2A = Alpha2A (Homo sapiens, UniProt P08913); test: as above; conditions: read-out: Percentage inhibition
# AT1 = AT1 (Homo sapiens, UniProt P30556); test: as above; conditions: read-out: Percentage inhibition
# M2 = M2 (Homo sapiens, UniProt P08172); test: as above; conditions: read-out: Percentage inhibition
# 5-HT1A = 5-HT1A (Homo sapiens, UniProt P08908); test: as above; conditions: read-out: Percentage inhibition
# 5-HT2C = 5-HT2C (Homo sapiens, UniProt P28335); test: as above; conditions: read-out: Percentage inhibition
# FP = FP (Homo sapiens, UniProt P43088); test: as above; conditions: read-out: Percentage inhibition
# PTH1 = PTH1 (Homo sapiens, UniProt Q03431); test: as above; conditions: read-out: Percentage inhibition
# LPA1 = LPA1 (Homo sapiens, UniProt Q92633); test: as above; conditions: read-out: Percentage inhibition
# Chain of LPA1 (Q92633 whole entry): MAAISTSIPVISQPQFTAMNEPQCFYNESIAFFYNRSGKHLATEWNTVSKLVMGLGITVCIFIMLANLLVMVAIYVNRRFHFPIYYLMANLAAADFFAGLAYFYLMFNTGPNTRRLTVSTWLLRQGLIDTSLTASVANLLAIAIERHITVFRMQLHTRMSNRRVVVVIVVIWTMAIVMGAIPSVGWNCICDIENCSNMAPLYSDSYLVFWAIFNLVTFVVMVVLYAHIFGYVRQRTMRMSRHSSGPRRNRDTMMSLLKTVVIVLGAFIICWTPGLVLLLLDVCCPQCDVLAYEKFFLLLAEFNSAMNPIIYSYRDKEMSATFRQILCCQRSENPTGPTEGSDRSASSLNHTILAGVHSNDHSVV
# M1 = M1 (Homo sapiens, UniProt P11229); test: as above; conditions: read-out: Percentage inhibition
# B2 = B2 (Homo sapiens, UniProt P30411); test: as above; conditions: read-out: Percentage inhibition
# LPA3 = LPA3 (Homo sapiens, UniProt Q9UBY5); test: as above; conditions: read-out: Percentage inhibition
# DP = DP (Homo sapiens, UniProt Q13258); test: as above; conditions: read-out: Percentage inhibition
# EP2 = EP2 (Homo sapiens, UniProt P43116); test: as above; conditions: read-out: Percentage inhibition
# Beta 1 = Beta 1 (Homo sapiens, UniProt P08588); test: as above; conditions: read-out: Percentage inhibition
# 5-HT2A = 5-HT2A (Homo sapiens, UniProt P28223); test: as above; conditions: read-out: Percentage inhibition
# FPR1 = FPR1 (Homo sapiens, UniProt P21462); test: as above; conditions: read-out: Percentage inhibition
# Chain of FPR1 (P21462 whole entry): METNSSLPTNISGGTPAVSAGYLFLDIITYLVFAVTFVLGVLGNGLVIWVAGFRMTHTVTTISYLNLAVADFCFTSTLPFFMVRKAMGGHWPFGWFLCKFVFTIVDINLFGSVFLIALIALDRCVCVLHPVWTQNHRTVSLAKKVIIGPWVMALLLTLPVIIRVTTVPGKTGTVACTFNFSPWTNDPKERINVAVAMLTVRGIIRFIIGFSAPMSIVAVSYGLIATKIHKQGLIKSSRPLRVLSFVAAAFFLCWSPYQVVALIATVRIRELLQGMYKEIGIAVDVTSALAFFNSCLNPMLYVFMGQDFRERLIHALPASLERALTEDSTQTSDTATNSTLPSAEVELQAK
# PK1 = PK1 (Homo sapiens, UniProt Q8TCW9); test: as above; conditions: PK-1, read-out: Percentage inhibition
# Chain of PK1 (Q8TCW9 whole entry): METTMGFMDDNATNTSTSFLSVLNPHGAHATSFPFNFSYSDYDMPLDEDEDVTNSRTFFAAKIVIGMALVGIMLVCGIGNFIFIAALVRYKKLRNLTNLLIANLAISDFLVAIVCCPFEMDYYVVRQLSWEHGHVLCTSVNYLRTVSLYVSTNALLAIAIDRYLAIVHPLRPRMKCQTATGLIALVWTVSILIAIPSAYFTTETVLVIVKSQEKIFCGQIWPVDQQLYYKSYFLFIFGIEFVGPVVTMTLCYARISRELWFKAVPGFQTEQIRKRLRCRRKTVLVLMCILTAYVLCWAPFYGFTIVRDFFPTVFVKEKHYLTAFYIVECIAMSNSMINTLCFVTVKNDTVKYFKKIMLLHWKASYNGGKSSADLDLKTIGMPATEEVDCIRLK
# OT = OT (Homo sapiens, UniProt P30559); test: as above; conditions: read-out: Percentage inhibition
# Trypsin-mediated PARs = test: as above; set-up: species or system human; conditions: 10 μM BIRB0796
# TP = TP (Homo sapiens, UniProt P21731); test: as above; conditions: read-out: Percentage inhibition
# CX3CR1 = CX3CR1 (Homo sapiens, UniProt P49238); test: as above; conditions: read-out: Percentage inhibition
# Kv1.5 = Kv1.5 (Homo sapiens, UniProt P22460); test: Cardiac ion channel functional assay, Safety and Liability Panel; format: cell-based
# OPRD1 = OPRD1 (Homo sapiens, UniProt P41143); test: GPCR cell-based functional assay, Safety and Liability Panel; conditions: read-out: Percentage inhibition
# A3 = A3 (Homo sapiens, UniProt P0DMS8); test: as above; conditions: read-out: Percentage inhibition
# Nav1.6 = Nav1.6 (Homo sapiens, UniProt Q9UQD0); test: IonWorks Quattro 2-pulse inactivated-state protocol; format: cell-based; conditions: Predicted IC50 potency values Nav1.6 P1, Pulse 1, 2-pulse protocol
smiles,measurement,setting,value
Cc1ccc(-n2nc(C(C)(C)C)cc2NC(=O)Nc2ccc(OCCN3CCOCC3)c3ccccc23)cc1 [BIRB0796],inhibition at 10 µM,NMU1,22.5%
same,inhibition at 10 µM,OPRM1,-2.5%
same,inhibition at 10 µM,A1,19.5%
same,inhibition at 10 µM,UT/GPR14,18.5%
same,inhibition at 10 µM,OPRK1,-19%
same,inhibition at 10 µM,M3,5%
same,inhibition at 10 µM,Y2,-13.5%
same,inhibition at 10 µM,S1P3,-1.5%
same,Percentage inhibition,PAC1 long isoform,3.5%
same,inhibition at 10 µM,OX1,12%
same,inhibition at 10 µM,BB2,0%
same,inhibition at 10 µM,VPAC1,-2%
same,inhibition at 10 µM,Beta 2,-9.5%
same,inhibition at 10 µM,Alpha1A,6%
same,inhibition at 10 µM,CRF1,13%
same,inhibition at 10 µM,SST4,-5.5%
same,inhibition at 10 µM,CysLT1,2%
same,inhibition at 10 µM,V2,1%
same,inhibition at 10 µM,H3,91.5%
same,inhibition at 10 µM,H1,-1.5%
same,inhibition at 10 µM,NK1,12%
same,inhibition at 10 µM,Motilin receptor,94.5%
same,inhibition at 10 µM,CB1,9%
same,inhibition at 10 µM,VPAC2,-4%
same,inhibition at 10 µM,CXCR1,-1.5%
same,inhibition at 10 µM,D5,14%
same,inhibition at 10 µM,CGRP1,0%
same,inhibition at 10 µM,IP1,12.5%
same,inhibition at 10 µM,Alpha1D,3.5%
same,inhibition at 10 µM,EP3,7.5%
same,inhibition at 10 µM,CCR2B,0%
same,inhibition at 10 µM,TSH,-4%
same,inhibition at 10 µM,NK3,17.5%
same,inhibition at 10 µM,CB2,80%
same,inhibition at 10 µM,PRP,3%
same,inhibition at 10 µM,PAF,19.5%
same,inhibition at 10 µM,P2Y1,10.5%
same,inhibition at 10 µM,GnRH/LHRH,-20.5%
same,inhibition at 10 µM,C5aR,-5.5%
same,inhibition at 10 µM,D1,23%
same,inhibition at 10 µM,NTR1,-12%
same,inhibition at 10 µM,V1A,2%
same,inhibition at 10 µM,hERG,≥ 50%
same,inhibition at 10 µM,GPR109A,-1%
same,inhibition at 10 µM,BLT1,8.5%
same,inhibition at 10 µM,CCR1,-6%
same,inhibition at 10 µM,5-HT2B,18.5%
same,inhibition at 10 µM,CCK2,2%
same,inhibition at 10 µM,H2,-5.5%
same,inhibition at 10 µM,D2L,53.5%
same,inhibition at 10 µM,ETB,11%
same,inhibition at 10 µM,MC5,2%
same,inhibition at 10 µM,ETA,-4%
same,inhibition at 10 µM,GAL1,-1.5%
same,inhibition at 10 µM,Alpha2A,-4%
same,inhibition at 10 µM,AT1,-2.5%
same,inhibition at 10 µM,M2,34.5%
same,inhibition at 10 µM,5-HT1A,31%
same,inhibition at 10 µM,5-HT2C,5.5%
same,inhibition at 10 µM,FP,20.5%
same,inhibition at 10 µM,PTH1,0%
same,inhibition at 10 µM,LPA1,6.5%
same,inhibition at 10 µM,M1,46.5%
same,inhibition at 10 µM,B2,-4.5%
same,inhibition at 10 µM,LPA3,5%
same,inhibition at 10 µM,DP,12.5%
same,inhibition at 10 µM,EP2,2.5%
same,inhibition at 10 µM,Beta 1,-6%
same,inhibition at 10 µM,5-HT2A,99.5%
same,inhibition at 10 µM,FPR1,-4.5%
same,inhibition at 10 µM,PK1,-6.5%
same,inhibition at 10 µM,OT,12.5%
same,Percentage inhibition,Trypsin-mediated PARs,9.0%
same,inhibition at 10 µM,TP,32%
same,inhibition at 10 µM,CX3CR1,-12%
same,inhibition at 10 µM,Kv1.5,≥ 50%
same,inhibition at 10 µM,OPRD1,8.5%
same,inhibition at 10 µM,A3,20.5%
CCN(CC)CC(=O)Nc1c(C)cccc1C [Lidocaine],IC50,Nav1.6,270 µM
